Tests used:
L. reuteri = conditions: Rattanaprasert et al. 2014; cited from earlier work
B. bifidum = assay: free sugar consumption by intestinal microbiota; assay type: cell-based; design: key: *: predicted, but not observed; ND: Not Determined; conditions: predicted, but not observed
From the text: (§1) A number of bacterial species are provided in Table 2, since the inventors have discovered preferred carbon source(s) for certain bacteria. Certain embodiments of the invention described herein would include one or more of any of the species found in Table 2.

B. breve = assay: free sugar consumption by intestinal microbiota; assay type: cell-based; design: key: *: predicted, but not observed; ND: Not Determined; conditions: predicted, but not observed
From the text: as §1

B. infantis = assay: free sugar consumption by intestinal microbiota; assay type: cell-based; design: key: *: predicted, but not observed; ND: Not Determined; conditions: predicted, but not observed
From the text: as §1

B. longum = assay: free sugar consumption by intestinal microbiota; assay type: cell-based; design: key: *: predicted, but not observed; ND: Not Determined; conditions: predicted, but not observed
From the text: as §1

SMILES | growth of Lactobacillus reuteri on the sugar (L. reuteri) | preferences for free sugar consumption (B. bifidum) | preferences for free sugar consumption (B. breve) | preferences for free sugar consumption (B. infantis) | preferences for free sugar consumption (B. longum)
C[C@H](O)[C@H](O)[C@@H](O)[C@@H](O)C=O [Rhamnose] | utilize rhamnose as a terminal electron acceptor to improve its growth | – | – | – | –
O=C[C@@H](O)[C@H](O)[C@H](O)CO [Arabinose] | known to grow on arabinose | – | – | – | –
C[C@H](O)[C@@H](O)[C@@H](O)[C@H](O)C=O [Fucose] | – | * | * | * | *

Reference: patent US20200245667A1, “OLIGOSACCHARIDE COMPOSITIONS AND THEIR USE DURING TRANSITIONAL PHASES OF THE MAMMALIAN GUT MICROBIOME” (EVOLVE BIOSYSTEMS, INC., priority 2017, published 2020)
